The record followed here is patent US9321756B2, “Azole compounds as PIM inhibitors” (priority 2011, dated 2016).

Where two headings read alike, the source gives them in different places.

The test system of test [1] is Pim-2 stably transfected U2OS human osteogenic sarcoma line. Put plainly: Pim cell assay U2OS (phospho-BAD normalized against total BAD), Pim-2 transfected. It is filed as cell-based. Particulars: Homo sapiens, read-out: U2OS Pim2_Cell_IC50. Here is the method:
The cell lines used in the assay were generated by the stable transfection of either Pim-1 or Pim-2 into the U2OS human osteogenic sarcoma line. The assay for determination of the Pim activity in the engineered U2OS cell lines measures levels of phospho-BAD normalized against total BAD protein levels. It was conducted as follows:
The adherent cells were dissociated from the flasks using non-enzymatic cell dissociation solution (Sigma #C5914). […] The cells were then incubated overnight at 37° C., 5% CO2.
In addition to the 10-point dosing curve of the test compound, DMSO alone was run as the high control.
This dilution in DMSO was then diluted again into cell growth medium. Aliquots (12 μL) of the compound diluted in growth medium were then transferred to the appropriate wells of the 96-well plates containing cells to a final DMSO concentration of 0.3%. The cell plates were then incubated with compound for 29 min at 37° C., 5% CO2.
The cell plates containing lysis buffer were then immediately stored at −70° C.
These prepared lysates were then assayed for phospho and total BAD according to the manufacturer's protocols (Meso Scale Diagnostics, Cat#K15103C-3 & #K15103D-3). The plates were read on the MSD Sector Imager 6000, and results were calculated according to the assay protocols ((% Phosphoprotein=((2×Phospho signal)/(Phospho signal+Total signal))×100)).

Test [2] concerns the target full length recombinant Pim-3 (Homo sapiens (Human), UniProt Q86V86). Put plainly: Pim enzyme assay (HTRF, phosphorylation of biotinylated-BAD (S112) peptide), Pim-3. It is filed as biochemical. Particulars: Pim-3 enzyme assay; read-out: Pim3 IC50. The gist of the method: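 IC50 values were fitted with a 4-parameter logistic model to percent-of-control HTRF signal (Eu anti-phospho-BAD S112 antibody/streptavidin-APC). Reactions used full-length Pim-3 and biotin-BAD (S112) peptide, ran 1 h 30 min at RT (22 °C) in Hepes pH 7.0 buffer with BSA and DTT, and were stopped by 3 mM EDTA.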
(In TR-FRET formats the signal depends on donor and acceptor labels being close together.)

Test [3] has as its system Pim-1 stably transfected U2OS human osteogenic sarcoma line. Put plainly: Pim cell assay U2OS (phospho-BAD normalized against total BAD), Pim-1 transfected. The class given is cell-based. Particulars: Homo sapiens, U2OS.
Test [4] addresses full length recombinant Pim-1 (Homo sapiens (Human), UniProt P11309). Put plainly: Pim enzyme assay (HTRF, phosphorylation of biotinylated-BAD (S112) peptide), Pim-1. It is filed as biochemical.
For test [5], the target named is full length recombinant Pim-2 (Homo sapiens (Human), UniProt Q9P1W9). Put plainly: Pim enzyme assay (HTRF, phosphorylation of biotinylated-BAD (S112) peptide), Pim-2. It is filed as biochemical. Particulars: Pim-2 enzyme assay; read-out: Pim2_IC50.
Setting [6] is: read-out: U2OS Pim1_Cell_IC50, U2OS cells, Pim-1 transfected.
Setting [7] is: Pim-1 enzyme assay, read-out: Pim_1_IC50.

Sequence of full length recombinant Pim-2 (Q9P1W9 whole entry): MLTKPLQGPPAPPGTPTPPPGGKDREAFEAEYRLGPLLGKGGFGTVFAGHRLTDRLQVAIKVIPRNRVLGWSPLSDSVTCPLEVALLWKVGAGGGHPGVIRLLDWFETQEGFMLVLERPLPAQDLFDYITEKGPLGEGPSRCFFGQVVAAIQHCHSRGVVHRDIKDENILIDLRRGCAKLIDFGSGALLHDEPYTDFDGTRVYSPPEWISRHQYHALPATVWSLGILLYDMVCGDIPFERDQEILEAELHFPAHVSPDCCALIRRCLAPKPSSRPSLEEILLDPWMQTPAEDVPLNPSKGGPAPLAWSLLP
Sequence of full length recombinant Pim-1 (P11309 whole entry): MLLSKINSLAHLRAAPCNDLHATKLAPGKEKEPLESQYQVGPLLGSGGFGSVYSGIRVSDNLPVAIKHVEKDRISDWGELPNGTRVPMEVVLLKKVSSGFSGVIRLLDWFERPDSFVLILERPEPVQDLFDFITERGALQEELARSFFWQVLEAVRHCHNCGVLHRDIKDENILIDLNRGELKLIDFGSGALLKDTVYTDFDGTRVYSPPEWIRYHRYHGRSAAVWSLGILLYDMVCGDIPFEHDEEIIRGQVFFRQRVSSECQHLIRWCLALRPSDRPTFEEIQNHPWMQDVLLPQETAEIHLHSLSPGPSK

As to `CC1CCCCN1c1cncc(-c2c[nH]c3ccc(-c4nnc(N)s4)cc23)n1` (centres unmarked) [Example 153, 5-(3-(6-(2-methyl-1-piperidinyl)-2-pyrazinyl)-1H-indol-5-yl)-1,3,4-thiadiazol-2-amine], the IC50 in test [1] (U2OS cells, Pim-2 transfected) stood at 1660 nM; in test [2], 1.7 nM; in test [3] (read-out: U2OS Pim1_Cell_IC50) it was 51.9 nM; in test [4] it was 1.77 nM; in test [5] it was 9.74 nM.
`CC1CCCCN1c1cncc(-c2c[nH]c3ccc(-c4nnc(N)o4)cc23)n1` (centres unmarked) [Example 1, 5-(3-(6-(2-methylpiperidin-1-yl)pyrazin-2-yl)-1H-indol-5-yl)-1,3,4-oxadiazol-2-amine]: the IC50 stood at 435 nM in test [1] (U2OS cells, Pim-2 transfected); 1.06 nM in test [2]; 11.9 nM in test [3] (setting [6]); 0.714 nM in test [4] (setting [7]); 2.06 nM in test [5].
Turning to `CNc1nnc(-c2ccc3[nH]cc(-c4cncc(N(C)C)n4)c3c2)s1` [Example 231, N,N-dimethyl-6-(5-(5-(methylamino)-1,3,4-thiadiazol-2-yl)-1H-indol-3-yl)-2-pyrazinamine], the IC50 in test [1] (U2OS) was greater than 31600 nM; in test [2], 9.89 nM; in test [3] (read-out: U2OS Pim1_Cell_IC50), 377 nM; in test [4], 38.2 nM; in test [5], 137 nM.
For the molecule `Cc1nccn1-c1cccc(-c2c[nH]c3ccc(-c4nnc(N)s4)cc23)n1` [Example 169, 5-(3-(6-(2-methyl-1H-imidazol-1-yl)-2-pyridinyl)-1H-indol-5-yl)-1,3,4-thiadiazol-2-amine], the IC50 in test [1] (U2OS cells, Pim-2 transfected) is greater than 31600 nM; in test [2] it was 11.8 nM; in test [3] (setting [6]), 1810 nM; in test [4] (setting [7]) it was 26.4 nM; in test [5], 23.8 nM.
Consider `Nc1nnc(-c2ccc3[nH]cc(-c4ccc5nccnc5c4)c3c2)s1` [Example 151, 5-(3-(6-quinoxalinyl)-1H-indol-5-yl)-1,3,4-thiadiazol-2-amine], for which the IC50 in test [1] (U2OS cells, Pim-2 transfected) is greater than 31600 nM; in test [2] it was 17.5 nM; in test [3] (read-out: U2OS Pim1_Cell_IC50), 925 nM; in test [4] (setting [7]), 103 nM; in test [5], 144 nM.
With `CC1CCN(c2cncc(-c3c[nH]c4ccc(-c5nnc(N)s5)cc34)n2)CC1` [Example 162, 5-(3-(6-(4-methyl-1-piperidinyl)-2-pyrazinyl)-1H-indol-5-yl)-1,3,4-thiadiazol-2-amine], the IC50 in test [1] (U2OS cells, Pim-2 transfected) came out at 5680 nM; in test [2], 8.54 nM; in test [3] (read-out: U2OS Pim1_Cell_IC50) it was 214 nM; in test [4] (setting [7]), 12.7 nM; in test [5], 49.4 nM.
As to `CN(C)c1cncc(-c2c[nH]c3ccc(-c4nnc(N)s4)cc23)n1` [Example 158, 6-(5-(5-amino-1,3,4-thiadiazol-2-yl)-1H-indol-3-yl)-N,N-dimethyl-2-pyrazinamine], the IC50 worked out at 3040 nM in test [1] (U2OS cells, Pim-2 transfected); 3.86 nM in test [2]; 133 nM in test [3] (setting [6]); 8.18 nM in test [4] (setting [7]); 28.2 nM in test [5].
Consider `CC(C)Oc1cncc(-c2c[nH]c3ccc(-c4nnc(N)s4)cc23)n1` [Example 159, 5-(3-(6-(1-methylethoxy)-2-pyrazinyl)-1H-indol-5-yl)-1,3,4-thiadiazol-2-amine], for which the IC50 in test [1] (U2OS cells, Pim-2 transfected) was 2220 nM; in test [2], 3 nM; in test [3] (setting [6]), 91.9 nM; in test [4] (read-out: Pim_1_IC50), 8.2 nM; in test [5] it was 16.6 nM.
Turning to `CS(=O)(=O)c1nnc(-c2ccc3[nH]cc(-c4cccc(N5CCOCC5)n4)c3c2)s1` [Example 215, 5-(5-(methylsulfonyl)-1,3,4-thiadiazol-2-yl)-3-(6-(4-morpholinyl)-2-pyridinyl)-1H-indole], the IC50 was greater than 31600 nM in test [1] (U2OS cells, Pim-2 transfected); 168 nM in test [2]; greater than 31600 nM in test [3] (read-out: U2OS Pim1_Cell_IC50); 208 nM in test [4] (setting [7]); 8780 nM in test [5].
`CNc1nnc(-c2ccc3[nH]cc(-c4cccc(N5CCCC5=O)n4)c3c2)s1` [Example 229, 1-(6-(5-(5-(methylamino)-1,3,4-thiadiazol-2-yl)-1H-indol-3-yl)-2-pyridinyl)-2-pyrrolidinone]: the IC50 in test [1] (U2OS cells, Pim-2 transfected) was greater than 31600 nM; in test [2], 6.73 nM; in test [3] (read-out: U2OS Pim1_Cell_IC50), 312 nM; in test [4] (setting [7]), 28.8 nM; in test [5], 80.4 nM.
